Measurements: ChEMBL document CHEMBL1128050, “The discovery of a novel and potent benzodiazepine receptor pharmacophore” (Bioorg Med Chem Lett, 1995)

Molecular target: GABA-A receptor; anion channel
Assay: Binding affinity to the benzodiazepine receptor assayed using 0.5 nM [3H]flunitrazapam as radioligand in guinea pig cerebellum
Type: tissue-based, Cavia porcellus
Details: not given

Going from `Cc1ccc2c(c1)ncn2-c1ccc2[nH]cc(C3CCNCC3)c2c1` to `N#Cc1ccc2c(c1)ncn2-c1ccc2[nH]cc(C3CCNCC3)c2c1`, the IC50 falls from 0.49 nM to 0.24 nM (2-fold). The second is the more potent here.

First: Cc1ccc2c(c1)ncn2-c1ccc2[nH]cc(C3=CCN(C(=O)OC(C)(C)C)CC3)c2c1
Second: N#Cc1ccc2c(c1)ncn2-c1ccc2[nH]cc(C3=CCNCC3)c2c1
The IC50 of the first is 67-fold higher: 31 nM for the first, 0.46 nM for the second. The second is the more potent here.

Compared with `COCCN1CCC[C@@H]1Cc1c[nH]c2ccc(-n3cnc4cc(C#N)ccc43)cc12`, `CN1CCC[C@H]1Cc1c[nH]c2ccc(-n3cnc4cc(C#N)ccc43)cc12` is 13-fold lower in IC50: 24 nM for the first, 1.8 nM for the second. The second is the more potent here.

First: CN1CCC[C@@H]1Cc1c[nH]c2ccc(-n3cnc4cc(C#N)cnc43)cc12
Second: CN1CCC[C@@H]1Cc1c[nH]c2ccc(-n3cnc4cc(C#N)ccc43)cc12
The IC50 of the first is 3.5-fold higher: 9.8 nM for the first, 2.8 nM for the second.

First: Cc1ccc2c(c1)ncn2-c1ccc2[nH]ccc2c1
Second: N#Cc1ccc2c(c1)ncn2-c1ccc2[nH]ccc2c1
The IC50 of the first is 23-fold lower: 0.79 nM for the first, 18 nM for the second.

First: CN1CCC[C@@H]1Cc1c[nH]c2ccc(-n3cnc4cccnc43)cc12
Second: Cc1ccnc2c1ncn2-c1ccc2[nH]cc(C[C@H]3CCCN3C)c2c1
The IC50 of the first is 2.2-fold higher: 27 nM for the first, 12 nM for the second.

Going from `COCCN1CCC[C@@H]1Cc1c[nH]c2ccc(-n3cnc4cc(CN)ccc43)cc12` to `CN1CCC[C@@H]1Cc1c[nH]c2ccc(-n3cnc4cc(CN)ccc43)cc12`, the IC50 falls from 55 nM to 13 nM (4.2-fold).

Compared with `CN1CCC[C@@H]1Cc1c[nH]c2ccc(-n3ccc4cc(C#N)ccc43)cc12`, `CN1CCC[C@@H]1Cc1c[nH]c2ccc(-n3cnc4cc(Cl)ccc43)cc12` is lower in IC50: > 1000 nM for the first, 1.1 nM for the second.

Compared with `N#Cc1ccc2c(c1)ncn2-c1ccc2[nH]cc(C=O)c2c1`, `CN1CCC(c2c[nH]c3ccc(-n4cnc5cc(C#N)ccc54)cc23)C1` (centres undefined) is 8.6-fold lower in IC50: 19 nM for the first, 2.2 nM for the second.

First: CN1CCC[C@@H]1Cc1c[nH]c2ccc(-n3cnc4ccccc43)cc12
Second: Cc1ccc2c(c1)ncn2-c1ccc2[nH]cc(C[C@H]3CCCN3C)c2c1
The IC50 of the first is 100-fold higher: 16 nM for the first, 0.16 nM for the second. The second is the more potent here.

First: COCCN1CCC[C@@H]1Cc1c[nH]c2ccc(-n3cnc4cc(NC(=O)Nc5ccccc5)ccc43)cc12
Second: CN1CCC[C@@H]1Cc1c[nH]c2ccc(-n3cnc4cc(NC(Cc5c[nH]c6ccccc56)C(=O)NC(=O)OCc5ccccc5)ccc43)cc12 (some centres undefined)
The IC50 of the first is 1.9-fold lower: 17 nM for the first, 33 nM for the second. The first is the more potent here.

First: c1cnc2c(c1)ncn2-c1ccc2[nH]cc(C[C@H]3CCCN3)c2c1
Second: O=Cc1c[nH]c2ccc(-n3cnc4cccnc43)cc12
The IC50 of the first is 1.9-fold lower: 110 nM for the first, 209 nM for the second. The first is the more potent here.

First: CN1CCC[C@@H]1Cc1c[nH]c2ccc(Nc3ncccc3[N+](=O)[O-])cc12
Second: COCCN1CCC(c2c[nH]c3ccc(-n4cnc5cc(C#N)ccc54)cc23)CC1
The IC50 of the first is 16000-fold higher: 9600 nM for the first, 0.6 nM for the second. The second is the more potent here.

Molecular target: GABA-A receptor; anion channel
Assay: Displacement of [3H]flunitrazapam from GABA-A central benzodiazepine receptor of guinea pig cerebellum
Type: tissue-based, Cavia porcellus
Details: not given

With `N#Cc1ccc2c(c1)ncn2-c1ccc2[nH]cc(C[C@H]3CCCN3CC3CC3)c2c1` the IC50 was 27 nM.

Molecular target: GABA-A receptor; anion channel (Homo sapiens) (UniProt P14867+P47870+P18507+P28472+P48169+Q99928+Q9UN88+P34903+O00591+O14764+Q8N1C3+P18505+P78334+P47869+P31644+Q16445)
Assay: Inhibition of [3H]flunitrazapam binding to GABA-A central benzodiazepine receptor of guinea pig cerebellum at 10 uM
Type: tissue-based
Details: Cavia porcellus, target entry is the homologue from another species

In order of falling inhibition:
1. CN1CCC[C@@H]1Cc1c[nH]c2ccc(-n3ccc4cc(C#N)ccc43)cc12  37%
2. CN1CCC(c2c[nH]c3ccc(-n4ccc5cc(C#N)ccc54)cc23)C1 (centres undefined)  34%
